Data published in patent US20100048555A1, “IMIDAZOTHIAZOLE DERIVATIVES AS MARK INHIBITORS” (priority 2006, published 2010).

The compounds below were run against T1, MARK3 (Homo sapiens, UniProt P27448) (assay: MARK 3 Assay (HTRF, Cdc25C biotinylated peptide substrate)). Conditions: recombinant MARK3 enzyme, 10 μM ATP, 1 μM peptide substrate.
T1 construct: purchased University of Dundee
Assay type: biochemical
Method: MARK3 activity was assayed in vitro using a Cdc25C biotinylated peptide substrate (Cell Signalling Technologies). The phosphopeptide product was quantitated using a Homogenous Time-Resolved Fluorescence (HTRF) assay system (Park et al., 1999, Anal. Biochem. 269:94-104). The reaction mixture contained 50 mM HEPES/Tris-HCl, pH 7.4; 10 mM NaCl, 5 mM MgCl2, 0.2 mM NaVO4, 5 mM β-glycerol phosphate, 0.1% Tween-20, 2 mM dithiothreitol, 0.1% BSA, 10 μM ATP, 1 μM peptide substrate, and 10 nM recombinant MARK3 enzyme (University of Dundee) in a final volume of 12 μl. The buffer additionally contained protease inhibitor cocktail (Roche EDTA-free, 1 tab per 50 ml). The kinase reaction was incubated for 2 hours at 25° C., and then terminated with 3 μl Stop/Detection Buffer (50 mM HEPES, pH 7.0, 16.6 mM EDTA, 0.5M KF, 0.1% Tween-20, 0.1% BSA, 2 μg/ml SLX^ent 665 (CISBIO), and 2 μg/ml Eu^3+ cryptate label antibody (CISBIO)). The reaction was allowed to equilibrate overnight at 0° C., and relative fluorescent units were read on an HTRF enabled plate reader (e.g. TECAN GENios Pro). Inhibitor compounds were assayed in the reaction described above to determine compound IC50s. Aliquots of compound dissolved in DMSO were added to the reaction wells in a third-log dilution series covering a range of 1 nM to 10 μM. Relative phospho substrate formation, read as HTRF fluorescence units, was measured over the range of compound concentrations and a titration curve generated.

T1 sequence (P27448 whole entry, species assumed): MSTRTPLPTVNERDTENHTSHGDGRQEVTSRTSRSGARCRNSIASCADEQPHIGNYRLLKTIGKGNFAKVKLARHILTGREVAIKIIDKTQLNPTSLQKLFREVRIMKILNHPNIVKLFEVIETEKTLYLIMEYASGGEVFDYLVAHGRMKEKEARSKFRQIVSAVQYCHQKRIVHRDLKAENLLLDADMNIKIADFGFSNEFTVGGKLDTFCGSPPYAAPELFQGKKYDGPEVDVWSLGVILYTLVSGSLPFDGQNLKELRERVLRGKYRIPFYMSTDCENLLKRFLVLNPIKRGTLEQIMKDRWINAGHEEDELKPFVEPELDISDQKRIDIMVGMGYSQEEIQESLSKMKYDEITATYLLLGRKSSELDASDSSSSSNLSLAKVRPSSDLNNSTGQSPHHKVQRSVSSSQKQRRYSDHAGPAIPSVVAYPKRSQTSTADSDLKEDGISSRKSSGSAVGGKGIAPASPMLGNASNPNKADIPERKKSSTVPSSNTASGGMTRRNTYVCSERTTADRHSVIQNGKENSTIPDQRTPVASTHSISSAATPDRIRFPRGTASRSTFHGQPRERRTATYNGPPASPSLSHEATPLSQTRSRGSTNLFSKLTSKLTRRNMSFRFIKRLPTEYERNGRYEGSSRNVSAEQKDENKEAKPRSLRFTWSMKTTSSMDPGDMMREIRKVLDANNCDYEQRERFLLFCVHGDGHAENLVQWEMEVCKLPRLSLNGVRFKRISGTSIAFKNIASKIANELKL

IC50 [nM]	SMILES
100 to 500	O=C(Nc1ncn2c(C(F)(F)F)csc12)c1ccc(F)cc1 [Example 1, 4-Fluoro-N-[3-(trifluoromethyl)imidazo[5,1-b][1,3]thiazol-7-yl]benzamide]
100 to 500	O=C(Nc1ncn2c(C(F)(F)F)csc12)c1ccc(Cl)cc1 [Example 7, 4-Chloro-N-[3-(trifluoromethyl)imidazo[5,1-b][1,3]thiazol-7-yl]benzamide]
< 100	CN1CCN(c2ccc(C(=O)Nc3ncn4c(C(F)(F)F)csc34)cc2)CC1 [Example 8, 4-(4-Methylpiperazin-1-yl)-N-[3-(trifluoromethyl)imidazo[5,1-b][1,3]thiazol-7-yl]benzamide]
100 to 500	O=C(Nc1ncn2c(C(F)(F)F)csc12)c1ccc(N2CCOCC2)cc1 [Example 9]
< 100	O=C(Nc1ncn2c(C(F)(F)F)csc12)c1ccc(OCCN2CCCCC2)cc1 [Example 12, 4-(2-Piperidin-1-ylethoxy)-N-[3-(trifluoromethyl)imidazo[5,1-b][1,3]thiazol-7-yl]benzamide]
100 to 500	O=C(Nc1ncn2c(C(F)(F)F)csc12)c1ccc(CO)cc1 [Example 14, 4-(Hydroxymethyl)-N-[3-(trifluoromethyl)imidazo[5,1-b][1,3]thiazol-7-yl]benzamide]
100 to 500	O=C(Nc1ncn2c(C(F)(F)F)csc12)c1ccc(CN2CCOCC2)cc1 [Example 16, 4-(Morpholin-4-ylmethyl)-N-[3-(trifluoromethyl)imidazo[5,1-b][1,3]thiazol-7-yl]benzamide]
100 to 500	O=C(Nc1ncn2c(C(F)(F)F)csc12)c1ccc(CN2CCCCC2)cc1 [Example 17, 4-(Piperidin-1-ylmethyl)-N-[3-(trifluoromethyl)imidazo[5,1-b][1,3]thiazol-7-yl]benzamide]
100 to 500	CN1CCN(Cc2ccc(C(=O)Nc3ncn4c(C(F)(F)F)csc34)cc2)CC1 [Example 18, 4-[(4-methylpiperazin-1-yl)methyl]-N-[3-(trifluoromethyl)imidazo[5,1-b][1,3]thiazol-7-yl]benzamide]

Same assay, conditions: recombinant MARK3 enzyme, 10 μM ATP, range given with mixed units (500 nM to 1 μM), units kept in the value

IC50 [nM]	SMILES
500 to 1000	O=C(Nc1ncn2c(C(F)(F)F)csc12)c1ccc(O)cc1 [Example 2, 4-Hydroxy-N-[3-(trifluoromethyl)imidazo[5,1-b][1,3]thiazol-7-yl]benzamide]
500 to 1000	O=C(Nc1ncn2c(C(F)(F)F)csc12)c1cccc(OCCN2CCCCC2)c1 [Example 13, 3-(2-Piperidin-1-ylethoxy)-N-[3-(trifluoromethyl)imidazo[5,1-b][1,3]thiazol-7-yl]benzamide]
500 to 1000	O=C(Nc1ncn2c(C(F)(F)F)csc12)c1ccc(CO)cc1 [Example 14, 4-(Hydroxymethyl)-N-[3-(trifluoromethyl)imidazo[5,1-b][1,3]thiazol-7-yl]benzamide]
500 to 1000	CN1CCN(c2ccc(C(=O)Nc3ncn4c(C(F)(F)F)csc34)cn2)CC1 [Example 19, 6-(4-methylpiperazin-1-yl)-N-[3-(trifluoromethyl)imidazo[5,1-b][1,3]thiazol-7-yl]nicotinamide]
